According to patent US20050026133A1, “Cryopreservation medium for primate embryo stem cells and cryopreservation method” (ASAHI TECHNO GLASS CORPORATION, priority 2002, published 2005):

Tests used:
[1] = system: Cynomolgus monkey ES cells; test: Alkaline phosphatase activity (ES cell marker) of post-thaw ES cells in culture, fluorometry with 4-methylumbelliferyl phosphate; assay type: cell-based; conditions: for alkaline phosphatase activity of post-thaw ES cells (successful cryopreservation): 8 days of culture
Experimental: Cynomolgus monkey ES cells were subcultured for 33 passages and dissociated into cell suspension from three 90-mm Petri dishes, and the cell suspension was centrifuged at 1,000 rpm for 5 minutes. The supernatant was removed to obtain a cell precipitate. The cell precipitate was resuspended in 1 ml of a cryopreservation medium containing 20% (V/V) [=22% (W/V)] of DMSO, 40% (V/V) of a serum replacement containing albumin, insulin and transferrin (Knockout Serum Replacement; Invitrogen) [hereinafter referred to as serum replacement (A)] and 40% (V/V) of DMEM:Ham F12=1:1 medium [hereinafter referred to as medium (A)] supplemented with 3 g/l of glucose, 0.5 g/l of CaCl2 0.15 g/l of MgSO4. The cell suspension was transferred to a serum tube, refrigerated to −80° C. at a rate of about 1° C./min in Mr. Frosty is (Nalgen) and then stored in a liquid nitrogen container for about 6 days. The cells were thawed, plated in 60-mm Petri dishes in duplicate and cultured in the medium described in Suemori et al. (2001 Dev. Dyn. Oct; 222(2):273-9). ES cell proliferation was investigated by following the time course of the activity of alkaline phosphatase, which is a marker of ES cells. After 3, 5 and 7 days, the medium was removed from the dishes by aspiration, and the cells were washed with 1 ml of 30 mM Hepes buffer containing 0.1 mg/l of CaCl2 and 0.1 mg/l of MgSO4(7H2O) and treated with 1 ml of 0.2 mM 4-methylumbelliferyl phosphate solution in the same buffer in an incubator at 37° C. for 1 hour. 0.8 ml portions of the reaction mixture were transferred to a 24-well microplate and analyzed by fluorometry at Ex355/Em460. Fluorescence per 1 ml was calculated and plotted. As a control, the alkaline phosphatase activity of the same feeder cells as used during subcultures of ES cells was measured.

[2] = system: Cynomolgus monkey ES cells; test: Cell count per Petri dish of post-thaw ES cell culture after trypsinization; assay type: cell-based
Experimental: (§1) After 2, 4, 6 and 7 days, ES cell proliferation was assessed by alkaline phosphatase assay as described in Example 1. After 7 days of culture, the cells on each Petri dish was dissociated by tripsinization and counted.
as §1, with “8” for “7”, “counted. Colonies of 1 mm or larger formed on the Petri dishes for the respective concentrations were visually counted.” for “counted.”
(§2) After 2, 4, 6 and 8 days, ES cell proliferation was assessed by alkaline phosphatase assay as described in Example 1. After 8 days of culture, the cells on each Petri dish was dissociated by tripsinization and counted.
After 2, 4 and 6 days of culture, ES cell proliferation was assessed by alkaline phosphatase assay as described in Example 1. After 6 days of culture, the cells on each Petri dish was dissociated by tripsinization and counted.

[3] = system: Cynomolgus monkey ES cells; test: Post-thaw ES cell colony formation, proliferation to subculturable stage, staining with Vector Red alkaline phosphatase substrate; assay type: cell-based
Experimental: After completion of the culture, the cells in each Petri dish were fixed with paraformaldehyde and ethanol and stained with Vector Red alkaline phosphatase substrate (Vector Labs).
After completion of the culture, the cells in each Petri dish were fixed with paraformaldehyde and ethanol and stained with vector Red alkaline phosphatase substrate (Vector Labs). […] Similar staining of the feeder cells gave no stained colonies (FIG. 11).
as §2, with “counted. Colonies of 1 mm or larger formed on the Petri dishes for the respective concentrations were visually counted.” for “counted.”

[4] = system: Cynomolgus monkey ES cells; test: Differentiation potency of cryopreserved ES cells: teratoma formation after intraperitoneal injection into SCID mice; assay type: in vivo; conditions: Example 3; cells cryopreserved in 20% (V/V) [=22% (W/V)] DMSO, 40% serum replacement (A), 40% medium (A); 10 passages after thawing; 5×10^6 cells i.p. in SCID mice, about 6 weeks
Experimental: Cynomolgus monkey ES cells subcultured for 35 passages were harvested from three 90-mm Petri dishes and treated by a method similar to that employed in Example 1 to give a cell precipitate. The cell precipitate was resuspended in 1 ml of a cryopreservation medium consisting of 20% (V/V) [=22% (W/V)] of DMSO, 40% (V/V) of serum replacement (A), 40% (V/V) of medium (A). The cell suspension was transferred to a serum tube, refrigerated to −80° C. at a rate of about 1° C./min in Mr. Frosty (Nalgen) and stored in a liquid nitrogen container for 5 day. The cells were thawed and continuously subcultured in duplicate in 35-mm Petri dishes in the medium described in Suemori et al. (2001 Dev. Dyn. Oct;222(2);273-9). Differentiation potency was assessed after 10 passages. The cells were dissociated from the Petri dishes, and 5×10^6 cells were suspended in 0.5 ml of a phosphate buffer and intraperitoneally injected into SCID mice. The mice were fed for about 6 weeks, and teratomas were isolated from the abdomen.

[5] = system: embryonic stem cells and embryonic carcinoma cells; conditions: DMSO concentration of above 1% (W/V); cited from earlier work
chicken lung cells = conditions: DMSO or glycerin concentrations from 15 to 20%; cited from earlier work

C[S+](C)[O-] [DMSO, dimethyl sulfoxide]
alkaline phosphatase activity of post-thaw ES cells versus feeder cells ([1]; Example 1, cryopreservation medium with 20% (V/V) [=22% (W/V)] DMSO, 40% serum replacement (A), 40% medium (A), stored about 6 days, culture 3, 5, 7 days): significantly higher alkaline phosphatase activity than the feeder cells | alkaline phosphatase activity of post-thaw ES cells versus feeder cells ([1]; Example 2, 20% (V/V) [=22% (W/V)] DMSO, 40% serum replacement (A), 40% medium (A), stored 1 day, culture 2, 4, 6, 7 days): significantly higher alkaline phosphatase activity than the feeder cells | alkaline phosphatase activity of post-thaw ES cells versus feeder cells ([1]; Example 2 comparative, 10% (V/V) DMSO, 45% serum replacement (A), 45% medium (A), after 7 days): slightly exceeded the feeder cells in alkaline phosphatase activity | time course of alkaline phosphatase activity of post-thaw ES cells ([1]; Example 4, DMSO 12, 15, 20 or 30% (V/V) [13.2, 16.5, 22, 33% (W/V)], equal serum replacement (A) and medium (A), 2, 4, 6, 7 days): time-dependent increase in alkaline phosphatase activity | rate of increase of alkaline phosphatase activity versus comparative experiment (10% (V/V) DMSO) ([1]; Example 6, 20% (V/V) DMSO, storage cell densities 1.0, 2.0, 4.0×10^7 cells/2 ml, stored 18 days): alkaline phosphatase activity increased faster at any cell densities than in the comparative experiment | alkaline phosphatase activity of post-thaw ES cells ([1]; Example 7, 20% (V/V) DMSO with 10, 40 or 80% (V/V) serum replacement (A) or fetal bovine serum, 2, 4, 6, 7 days): alkaline phosphatase activity increased | rate of increase of alkaline phosphatase activity versus comparative experiment (10% (V/V) DMSO) ([1]; Example 8, 20% (V/V) [=22% (W/V)] DMSO, 20% serum replacement (A), 60% medium (A), 2, 4, 6 days): increased significantly faster | cell count per Petri dish in the 7 day culture versus comparative experiment (10% or 50% (V/V) DMSO) ([2]; Example 4, DMSO 15% (V/V) [=16.5% (W/V)] and 20% (V/V) [=22% (W/V)]): remarkably greater | cell count per Petri dish after 8 days of culture versus comparative experiment (10% (V/V) DMSO) ([2]; Example 6, 20% (V/V) DMSO, storage cell densities 1.0, 2.0, 4.0×10^7 cells/2 ml): greater than that in the comparative experiment | cryopreservation success by cell count per Petri dish after 7 days of culture ([2]; Example 7, 20% (V/V) DMSO with 10, 40 or 80% (V/V) serum replacement (A) or fetal bovine serum): Successful cryopreservation was confirmed at any supplement concentrations | cell count per Petri dish after 6 days of culture, 20% (V/V) DMSO relative to 10% (V/V) DMSO ([2]; Example 8, 20% serum replacement (A), 2.2×10^7 cells/2 ml, stored 1 day): 6 times | time after thawing until the cells could be subcultured ([3]; Example 1, 20% (V/V) DMSO, 40% serum replacement (A), 40% medium (A)): 1 week | colonies stained with Vector Red alkaline phosphatase substrate ([3]; Example 1, 20% (V/V) DMSO, after completion of the culture): numerous successfully stained colonies | ES cell proliferation and differentiated colonies after post-thaw passage ([3]; Example 1, 20% (V/V) DMSO, three-fold dilution followed by 3 days of subculture): successful proliferation of ES cells was observed without formation of differentiated colonies | ES cell proliferation and differentiated colonies after 7 days of prolonged culture ([3]; Example 2, 20% (V/V) DMSO): successful proliferation of ES cells was observed without formation of differentiated colonies | time after thawing until the cultures were able to be subcultured ([3]; Example 2, 20% (V/V) DMSO): 5 days | colonies stained with Vector Red alkaline phosphatase substrate ([3]; Example 2, 20% (V/V) DMSO, 7 days after thawing): numerous successfully stained colonies | ES cell proliferation after 7 days of prolonged culture ([3]; Example 2 comparative, 10% (V/V) DMSO): proliferation was recognized to a certain degree, though far below that of the cells in the illustrative experiment | reaching the subculturable stage after thawing ([3]; Example 2 comparative, 10% (V/V) DMSO, 5 days): could not reach the stage at which they were able to be subcultured after 5 days | colonies stained with Vector Red alkaline phosphatase substrate ([3]; Example 2 comparative, 10% (V/V) DMSO, 7 days after thawing): a few successfully stained colonies were observed | tissues found in teratomas (retention of pluripotency) [4]: formation of nerves, muscles and cartilage | time in culture at which cells begin to differentiate [5]: 4 days | viability of chicken lung cells (chicken lung cells): did not give high viabilities

OCC(O)CO [glycerin]
alkaline phosphatase activity of post-thaw ES cells (successful cryopreservation) ([1]; Example 5, glycerin 10, 20 or 30% (V/V) [12.6, 25.2, 37.8% (W/V)], 20% serum replacement (A), balance medium (A)): increase in alkaline phosphatase activity after 8 days of culture | alkaline phosphatase activity of post-thaw ES cells (successful cryopreservation) ([1]; Example 5 comparative, glycerin 5% (V/V) [=6.3% (W/V)]): all the glycerin concentrations but 5% (V/V) | cell count per Petri dish in the 8 day culture ([2]; Example 5, glycerin 10% (V/V) [=12.6% (W/V)] and 20% (V/V) [=25.2% (W/V)]): remarkably great | formation of ES cell colonies (1 mm or larger, visually counted) ([3]; Example 5, glycerin 10% (V/V) [=12.6% (W/V)] or above, 8 day culture): formation of ES cell colonies was confirmed | viability of chicken lung cells (chicken lung cells): did not give high viabilities
